The numbers were not newly measured in patent publication US20220331289A1, “Pharmaceutical Composition Comprising an Artemisinin Derivative for Nasal or Pulmonary Delivery” (Cipla Limited, priority 2014, published 2022), which cites them from elsewhere.

For this data set the following is noted: oil-based intramuscular injection formulation.

Molecules are shown by their SMILES.

In the case of `CO[C@H]1O[C@@H]2O[C@@]3(C)CC[C@H]4[C@H](C)CC[C@@H]([C@H]1C)[C@@]24OO3` [artemether], the absorption entry was “slowly and erratically absorbed”.
